From article PMC12278462, “Site-selective arylations of nature-inspired flavonoids or steroidal phenols via C—H or O—H activation” (Journal of Enzyme Inhibition and Medicinal Chemistry, 2025)
Read-outs that look alike come from different tables or passages of the source.

Columns and labels:
[1] = test system: MCF-7; assay: MTT antiproliferative assay, MCF-7; format: cell-based, human; conditions: Homo sapiens; for inhibition at 10 µM: MCF7, 10 µM; for inhibition at 10 µM / inhibition at 30 µM: 72 h; for inhibition at 30 µM: MCF7, 30 µM; for IC50: MCF7, 72 h, read-out: calculated IC50 MCF-7
Protocol: (§1) We evaluated the cytotoxic activity of the newly synthesised arylated compounds 13–17 by the MTT assay[37] on a panel of human adherent cancer cell lines. The panel included breast (MCF-7 and MDA MB-231) and cervical (HeLa, SiHa and C33A) cancer cell lines differing in receptorial or HPV status. Tumour selectivity was determined on the NIH/3T3 mouse fibroblast cell line.
(§2) Briefly, the panels of breast and cervical cancerous cell lines, differing by their receptorial and HPV status were used, precisely MCF-7 (ER, PR and HER2 positive) and MDA-MB-231 (TNBC) breast carcinoma and HeLa (HPV18+), SiHa (HPV16+), C33A (HPV-) cervical carcinoma cells. Non-cancerous NIH/3T3 mouse fibroblast cell line was used for selectivity study. MCF-7, MDA-MB-231, Hela and NIH/3T3 cell lines were purchased from ECACC (European Collection of Cell Cultures, Salisbury, UK), while SiHa and C33A from ATCC (American Tissue Culture Collection, LGC Standards GmbH, Wesel, Germany). Cells were maintained in Eagle's Minimum Essential Medium (EMEM, Capricorn Scientific GmbH, Ebsdorfergrund, Germany) supplemented with 10% heat-inactivated fetal bovine serum (FBS), 1% non-essential amino acids (NEAA), and 1% antibiotic-antimycotic mixture (penicillin–streptomycin). The cells were maintained at 37 °C in a humidified atmosphere containing 5% CO2.
(§3) For measurements cells were seeded for 96-well plates at a density of 5 000/well, except for C33A, which was seeded in 10 000cells for each well. After overnight standing cells were treated with 10 and 30 µM solutions for screening and increasing concentrations (0.1-30.0 µM) of the test compounds were used for concentration-response curves. After incubation for 72 hours under cell culturing condition 5 mg/ml MTT (3-(4,5-[…])-2,5-diphenyl-2H-tetrazolium bromide) solution was added for another 4 h. The precipitated formazan crystals were solubilized in DMSO and the absorbance was measured at 545 nm with a microplate reader (BMG Labtech, Ortenberg, Germany). Wells with untreated cells were utilized as control, and inhibition % were calculated by GraphPad Prism v 9.0 software (GraphPad Software, San Diego, CA, USA). If the growth-inhibition exceeded 70% at 30 µM concentration during the screening concentration-response curves were fitted and IC50 values were calculated by GraphPad Prism v 9.0. The experiments were performed with five parallel wells for each experimental condition and repeated at least twice.

[2] = test system: MDA-MB-231; assay: MTT antiproliferative assay, MDA-MB-231; format: cell-based, human; conditions: Homo sapiens; for inhibition at 10 µM: MDA-MB-231, 10 µM; for inhibition at 10 µM / inhibition at 30 µM: 72 h; for inhibition at 30 µM: MDA-MB-231, 30 µM; for IC50: MDA-MB-231, 72 h, read-out: calculated IC50 MDA-MB-231
Protocol: as §1, §2, §3

[3] = test system: HeLa; assay: MTT antiproliferative assay, HeLa; format: cell-based, human; conditions: Homo sapiens, HeLa, 72 h; for IC50: read-out: calculated IC50 HeLa
Protocol: as §1, §2, §3

[4] = test system: SiHa; assay: MTT antiproliferative assay, SiHa; format: cell-based, human; conditions: Homo sapiens, SiHa, 72 h; for IC50: read-out: calculated IC50 SiHa
Protocol: as §1, §2, §3

[5] = test system: C33A; assay: MTT antiproliferative assay, C33A; format: cell-based, human; conditions: Homo sapiens, C-33-A, 72 h; for IC50: read-out: calculated IC50 C33A
Protocol: as §1, §2, §3

[6] = test system: NIH/3T3 mouse fibroblast cell line; assay: MTT assay, tumour selectivity on non-cancerous fibroblasts; format: cell-based; conditions: Mus musculus; for inhibition at 10 µM: NIH3T3, 10 µM; for inhibition at 10 µM / inhibition at 30 µM: 72 h; for inhibition at 30 µM: NIH3T3, 30 µM; for IC50: NIH3T3, 72 h, read-out: calculated IC50 NIH/3T3
Protocol: as §1, §2, §3

[7] = test system: HeLa cells; assay: Cell cycle analysis by flow cytometry (propidium iodide); format: cell-based, human; conditions: 24 and 48 h
Protocol: To determine the cellular DNA content of the cells, flow cytometry analysis after propidium-iodide labeling was performed. Propidium iodide is a nuclear dye intercalating between the base pairs in DNA without sequence preference. Therefore, the cells' total emitted fluorescence will depend on each cell's DNA content, which varies depending on the cell cycle phase.
Hela cells were seeded into 12-well plates at 200,000 cells/well density for the cell cycle analysis. Cells were incubated overnight prior to the treatment, then treated with 1, 2, and 3 µM solutions of 14c compound for 24 h and 48 hours. After incubation, cells were washed twice with phosphate-buffered saline (PBS) and harvested. After centrifugation at 1200 rpm, for 7 minutes, cells were washed again with 300 µl PBS and fixed in 500 µl cold 70% ethanol. Samples were stained in 300 µl dye solution containing RNaseA, TritonX-100, sodium citrate, and 0.1 mg/ml-PI in distilled water. The suspension was incubated for 20 minutes in the dark at room temperature. Cells were measured by CytoFLEX flow cytometer, recorded by CytExpert Software (Beckman Coulter INC, Brea, CA, USA). In each analysis, 20,000 events were recorded inside the FSC/SSC gate, and the percentages of the cells in the different phases of the cell cycle were determined and analyzed using ModFit LT 6.0 software.

[8] = test system: HeLa cells; assay: Mitochondrial membrane potential assay (JC-10, flow cytometry); format: cell-based, human; conditions: 24 h
From the text: JC-10 dye was used to investigate the changes in the mitochondrial membrane potential. JC-10 is a cationic dye that can pass through the cell membrane and accumulate in healthy mitochondria by forming reversible red-fluorescent aggregates. In addition, changes in membrane potential result in the failure to retain the aggregates. Therefore, the dye returns to the cytosol in green monomeric form. Mitochondrial changes may be detected by measuring the green and red fluorescent signals together.
Hela cells were seeded into 12-well plates at 200,000 cells/well density and incubated overnight. Cells were treated with 1 and 2 µM of 17c for 24 h and 10 µM of CCCP as reference compound ^S1. After the incubation, cells were collected and centrifuged at 1100 rpm for 6 minutes, then washed with PBS. After centrifugation, 300 µl dye solution (20 µM JC-10 final concentration) was added to the pellet. After 5 min incubation, cells were measured by CytoFLEX flow cytometer, recorded by CytExpert Software (Beckman Coulter INC, Brea, CA, USA) reading of red and green fluorescence on 525 and 585 channels.

[9] = test system: human adherent cancer cell lines (HeLa, SiHa, C33A, MCF-7 and MDA-MB-231); assay: MTT assay, whole panel of cell lines; format: cell-based
Protocol: as §1, §2, §3

[10] = test system: MDA-MB-231; set-up: method as in PMID 21912610, PMID 28436164; conditions: cited from earlier work
[11] = test system: MCF-7dox; set-up: method as in PMID 21912610, PMID 28436164; conditions: MCF-7 adapted to doxorubicin; cited from earlier work

Row | Compound | inhibition at 10 µM [1] [%] | inhibition at 30 µM [1] [%] | IC50 [1] [nM] | inhibition at 10 µM [2] [%] | inhibition at 30 µM [2] [%] | IC50 [2] [nM] | inhibition at 10 µM [3] [%] | inhibition at 30 µM [3] [%] | IC50 [3] [nM] | inhibition at 10 µM [4] [%] | inhibition at 30 µM [4] [%] | IC50 [4] [nM] | inhibition at 10 µM [5] [%] | inhibition at 30 µM [5] [%] | IC50 [5] [nM] | inhibition at 10 µM [6] [%] | inhibition at 30 µM [6] [%] | IC50 [6] [nM] | IC50 [10] [nM] | other results
1 | CCCCOC1(c2cc(=O)c3c(Oc4ccc(C(C)(C)C)cc4)cc(O)cc3o2)C=CC(=O)C=C1 [17c, 2-(1-Butoxy-4-oxocyclohexa-2,5-dienyl)-5-(4-tert-butylphenoxy)-7-hydroxy-chromen-4-one] | 98.5 | 98.9 | 600 | 98.3 | 97 | 420 | 98 | 98 | 470 | 89.8 | 96.2 | 640 | 97.9 | 97.9 | 390 | 92.7 | 99 | 930 | – | subG1 phase [7]: substantial subG1 phase elevation; proportion of the cells at G2/M phase ([7]; concentration-dependent): significantly increases; number of mitochondrial membrane-disrupted cells ([8]; 1 and 2 µM, vs untreated controls): significantly increased; effect on mitochondrial membrane potential compared with reference agent CCCP ([8]; CCCP 10 µM): more substantial than that of the applied reference agent CCCP; IC50 ([9]; Homo sapiens, MTT, 72 h, range across cell lines, read-out: IC50 range over the investigated cell lines): 390 to 640 nM; times stronger activity than parent compound 10 ([9]; ratio of IC50 values, all investigated cell lines): 2.5–5 times
2 | O=C1C=CC(O)(c2cc(=O)c3c(O)cc(O)cc3o2)C=C1 [compound 9, Protoapigenone] | – | – | – | – | – | – | – | – | – | – | – | – | – | – | – | – | – | – | 1350 | –
3 | CCCCOC1(c2cc(=O)c3c(O)cc(O)cc3o2)C=CC(=O)C=C1 [compound 10, 1′-O-butyl protoapigenone, reference compound] | 87.7 | 93.3 | 3030 | 91.7 | 92.8 | 1060 | 95.7 | 96.2 | 1430 | 92.2 | 96.3 | 1600 | 98 | 98.5 | 970 | 95.5 | 99.1 | 2270 | 620 | –
4 | O=C1C=CC(O)(c2cc(=O)c3cc(-c4ccccc4)ccc3o2)C=C1 [compound 11] | – | – | – | – | – | – | – | – | – | – | – | – | – | – | – | – | – | – | – | IC50 [11]: 1230 nM
